Laboratory results reported in PubChem BioAssay (NCI).
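Results reflect a 48-hour exposure of cells in 96-well plates to compound at five concentrations. TGI is the concentration that stops growth completely.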

Assays:
Assay in all cases: NCI anticancer screen, dose series, 48 h
[1] = system: A549 NSCLC
[2] = system: UACC-257 melanoma
[3] = system: SN12C renal
[4] = system: NCI-H460 lung
[5] = system: HCT-116 colon
[6] = system: IGROV1 ovarian
[7] = system: CCRF-CEM leukemia
[8] = system: SNB-19 CNS
[9] = system: COLO 205 colon
[10] = system: EKVX NSCLC
[11] = system: OVCAR-4 ovarian
[12] = system: OVCAR-5 ovarian
[13] = system: NCI-H23 lung
[14] = system: KM20L2 colon
[15] = system: HOP-92 NSCLC
[16] = system: HT29 colon
[17] = system: SNB-78 CNS
[18] = system: SK-MEL-28 melanoma
[19] = system: ACHN renal
[20] = system: HCT-15 colon
[21] = system: OVCAR-3 ovarian
[22] = system: RXF 393 renal
[23] = system: M19-MEL melanoma
[24] = system: SF-539 CNS
[25] = system: MALME-3M melanoma
[26] = system: A498 renal
[27] = system: SK-MEL-2 melanoma
[28] = system: HOP-18 NSCLC
[29] = system: SW-620 colon
[30] = system: U251 CNS
[31] = system: RPMI-8226 leukemia
[32] = system: NCI-H522 lung
[33] = system: K-562 leukemia
[34] = system: SK-OV-3 ovarian
[35] = system: OVCAR-8 ovarian
[36] = system: LXFL 529 NSCLC
[37] = system: KM12 colon
[38] = system: TK-10 renal
[39] = system: 786-0 renal
[40] = system: DLD-1 colon
[41] = system: NCI-H226 lung
[42] = system: SR leukemia
[43] = system: LOX IMVI melanoma
[44] = system: HL-60(TB) leukemia
[45] = system: UACC-62 melanoma
[46] = system: SNB-75 CNS
[47] = system: HCC-2998 colon
[48] = system: HOP-62 NSCLC
[49] = system: UO-31 renal
[50] = system: M14 melanoma
[51] = system: SF-295 CNS
[52] = system: DMS 273 small cell lung
[53] = system: SK-MEL-5 melanoma
[54] = system: SF-268 CNS
[55] = system: CAKI-1 renal
[56] = system: MOLT-4 leukemia
[57] = system: DMS 114 small cell lung

## CC(=O)O[C@]1(C)CCC2C(C)C(=O)OC2C2C(C)[C@@H](O)CC21 (some centres not stated)
[1]
  TGI: > 100 µM
[2]
  TGI: > 100 µM
[3]
  TGI: > 100 µM
[4]
  TGI: > 100 µM
[5]
  TGI: 50.8 µM
[6]
  TGI: > 100 µM
[7]
  TGI: > 100 µM
[8]
  TGI: > 100 µM
[9]
  TGI: 36.2 µM
[10]
  TGI: > 100 µM
[11]
  TGI: > 100 µM
[12]
  TGI: > 100 µM
[13]
  TGI: > 100 µM
[14]
  TGI: 71.2 µM
[15]
  TGI: 91.3 µM
[16]
  TGI: > 100 µM
[17]
  TGI: > 100 µM
[18]
  TGI: > 100 µM
[19]
  TGI: > 100 µM
[20]
  TGI: 32.5 µM
[21]
  TGI: 47.3 µM
[22]
  TGI: 82.5 µM
[23]
  TGI: 57.4 µM
[24]
  TGI: > 100 µM
[25]
  TGI: > 100 µM
[26]
  TGI: > 100 µM
[27]
  TGI: 58.3 µM
[28]
  TGI: > 100 µM
[29]
  TGI: 31.2 µM
[30]
  TGI: > 100 µM
[31]
  TGI: 60.1 µM
[32]
  TGI: 34.4 µM
[33]
  TGI: 54.9 µM
[34]
  TGI: > 100 µM
[35]
  TGI: > 100 µM
[36]
  TGI: 59 µM
[37]
  TGI: > 100 µM
[38]
  TGI: > 100 µM
[39]
  TGI: > 100 µM
[40]
  TGI: > 100 µM
[41]
  TGI: > 100 µM
[42]
  TGI: > 100 µM
[43]
  TGI: 34.2 µM
[44]
  TGI: 34.2 µM
[45]
  TGI: 89.5 µM
[46]
  TGI: > 100 µM
[47]
  TGI: 58 µM
[48]
  TGI: 45.2 µM
[49]
  TGI: > 100 µM
[50]
  TGI: 47.9 µM
[51]
  TGI: > 100 µM
[52]
  TGI: 54.5 µM
[53]
  TGI: 89.7 µM
[54]
  TGI: > 100 µM
[55]
  TGI: > 100 µM

## CCOC(=O)c1c(NNc2ccccc2)nc2ccccc2c1-c1ccccc1
[1]
  TGI: 95.7 µM
[2]
  TGI: > 100 µM
[3]
  TGI: 92.3 µM
[4]
  TGI: 67.3 µM
[5]
  TGI: 47.2 µM
[6]
  TGI: > 100 µM
[7]
  TGI: 58.3 µM
[8]
  TGI: > 100 µM
[9]
  TGI: > 100 µM
[10]
  TGI: > 100 µM
[11]
  TGI: > 100 µM
[12]
  TGI: > 100 µM
[13]
  TGI: 50.9 µM
[14]
  TGI: > 100 µM
[15]
  TGI: > 100 µM
[16]
  TGI: > 100 µM
[17]
  TGI: 88.6 µM
[18]
  TGI: > 100 µM
[19]
  TGI: > 100 µM
[20]
  TGI: > 100 µM
[21]
  TGI: 67 µM
[22]
  TGI: 86.3 µM
[23]
  TGI: 52.5 µM
[24]
  TGI: 74.9 µM
[25]
  TGI: 64.3 µM
[26]
  TGI: > 100 µM
[27]
  TGI: 32.1 µM
[28]
  TGI: 77.3 µM
[29]
  TGI: > 100 µM
[30]
  TGI: > 100 µM
[56]
  TGI: 42.9 µM
[31]
  TGI: 47.3 µM
[32]
  TGI: 56.8 µM
[33]
  TGI: 77.9 µM
[34]
  TGI: > 100 µM
[35]
  TGI: 82.2 µM
[36]
  TGI: > 100 µM
[37]
  TGI: > 100 µM
[38]
  TGI: > 100 µM
[39]
  TGI: > 100 µM
[40]
  TGI: > 100 µM
[41]
  TGI: 92 µM
[42]
  TGI: 56.4 µM
[43]
  TGI: 40.1 µM
[44]
  TGI: 44.3 µM
[57]
  TGI: 32.9 µM
[45]
  TGI: 32 µM
[46]
  TGI: 93.2 µM
[47]
  TGI: > 100 µM
[48]
  TGI: 59.3 µM
[49]
  TGI: 66.3 µM
[50]
  TGI: 80.8 µM
[51]
  TGI: > 100 µM
[52]
  TGI: > 100 µM
[53]
  TGI: 35.2 µM
[54]
  TGI: 91.9 µM
[55]
  TGI: > 100 µM
